The results in this text go back to patent US20220064167A1, “IMIDAZO-PYRAZOLE CARBOXAMIDE DERIVATIVES AS ANTICANCER AGENTS AND THE SYNTHESIS THEREOF” (AVIDIN KFT., priority 2018, published 2022).

Data set [1] has as its system GBM2 (human glioblastoma). Briefly: viability assay (Table 2). The data set is classed as cell-based. On the procedure:
(§1) For viability assays cells were seeded in 96 well plates (MCF7 and 4T1: 6000, HL60: 120.000 cells/well) and incubated overnight. Compounds were dissolved in dimethyl sulfoxide (DMSO). Cells were treated with an increasing concentration of compounds having the general formula (I.) (156 nM-100 μM). Cell viability was determined after 72h incubation. Resazurin reagent (Sigma-Aldrich) was dissolved in PBS (pH 7.4) at 0.15 mg/ml concentration, sterile filtered (0.22 μm, Merck Millipore) and aliquoted at −20° C. Resazurin reagent (Sigma-Aldrich) was added at a final concentration of 25 μg/ml. After 2 hours incubation at 37° C. 5% CO2 fluorescence (530 nm excitation/580 nm emission) was recorded on a multimode microplate reader (Cytofluor4000, PerSeptive Biosytems). Viability was calculated with relation to untreated control cells and blank wells containing media without cells. IC50 values (50% inhibiting concentration) were calculated by GraphPad Prism® 5 (La Jolla, Calif., USA).
(§2) GBM2 (human glioblastoma), HeLa (human cervical carcinoma), MIA PaCa-2 (human pancreas carcinoma) and U87MG (human glioblastoma) cells were maintained in Dulbecco's Modified Eagle Medium (DMEM) 10% fetal calf serum (FCS, Gibco). A375 (human melanoma), A549 (human lung adenocarcinoma) and HEP3B (human hepatoma) cells were maintained in Dulbecco's Modified Eagle Medium/Nutrient Mixture F-12 (DMEM/F12) 10% FCS.
(§3) Media were supplemented with 2 mM GlutaMAX, and 100 U/mL penicillin, 100 μg/mL streptomycin (Life Technologies, Carlsbad, Calif., USA). Cell cultures were maintained at 37° C. in a humidified incubator in an atmosphere of 5% CO2 (Sanyo, Japan).
(§4) Viability assays were performed as described in Example 102.

Data set [2] concerns A375 (human melanoma). Briefly: viability assay (Table 2). To be noted: A-375. The data set is classed as cell-based. On the procedure: as §1, §2, §3, §4
Data set [3] has as its system human breast adenocarcinoma cell line, MCF-7. Briefly: resazurin viability assay, 72 h (Table 1). Conditions: MCF7, 72h incubation, 156 nM-100 μM. The data set is classed as cell-based.
Data set [4] deals with human promyelocytic leukemia, HL-60 cells. Briefly: resazurin viability assay, 72 h (Table 1). To be noted: 72h incubation, 156 nM-100 μM. The data set is classed as cell-based.
Data set [5] concerns mouse mammary carcinoma 4T1. Briefly: resazurin viability assay, 72 h (Table 1). The data set is classed as cell-based. Conditions: 72h incubation, 156 nM-100 μM.
The subject of data set [6] is HL-60 cells. Briefly: resazurin viability assay, Example 103 (FIG. 1). The data set is classed as cell-based. Conditions: Homo sapiens, 72 h incubation, 20.000 cells/well, read-out: half-inhibitory concentration (IC50) on viability of HL-60 cells. The method, then: The human primary fibroblasts (6000 cells/well) and Hl60 cells (20.000 cells/well) were seeded into 96-well plates (Corning Life Sciences) in media. Fibroblasts were cultured overnight before treatment. Effects of compounds described in Example 22, 60 and 83 were examined in concentrations of 1 μM, 250 nM, 62.5 nM, 15.6 nM, 3.9 nM and 0.9 nM in 100 μl after 72 h incubation. Resazurin reagent was prepared and used as described in Example 1.
(§5) Viability was calculated with relation to untreated control cells and blank wells containing media without cells. IC50 values (50% inhibiting concentration) were calculated by GraphPad Prism® 5.
For orientation: Alamar Blue is a resazurin reagent that responds to reducing activity.

In data set [7] the test system is HT168 (human melanoma). Briefly: viability assay (Table 2). The format is cell-based. On the procedure:
as §1
HT168 (human melanoma), HT199 (human melanoma), HT29 (human colorectal adenocarcinoma), MOLT4 (human leukemia) and U937 (human lymphoma) cells were maintained in Roswell Park Memorial Institute 1640 medium (RPMI-1640) 10% FCS. SKOV-3 cells were maintained in Dulbecco's Modified Eagle Medium/McCoy's medium (DMEM/McCoy) 10% FCS.
as §3, §4

The subject of data set [8] is human primary fibroblasts. Briefly: resazurin viability assay on primary fibroblasts, Example 103 (FIG. 1). The format is cell-based. Conditions: 72 h incubation, applied concentration range 1.6 nM-5 μM.
Description: To obtain primary human fibroblasts healthy volunteers (age 18-60 years) were enrolled into the study. The punch biopsies were taken from healthy subjects from the breast area undergoing plastic surgery. Primary fibroblasts were obtained from the skin by enzymatic digestion according to a standard protocol. Skin specimens were first washed in Salsol A solution (Human Rt, Gödöllö, Hungary) supplemented with 2% antibiotic/antimycotic solution (Sigma-Aldrich). Skin samples were then cut into narrow strips and incubated in Dispase solution (Roche Diagnostics, Mannheim, Germany) overnight at 4° C. The epidermis was subsequently separated from the dermis. Fibroblasts were obtained by incubating the dermis in Digestion Mix solution (Collagenase, Hyaluronidase and Deoxyribonuclease) for 2h at 37° C. Cell suspensions were filtered through a 100 μm nylon mesh (BD Falcon, San Jose, Calif., USA) and cells were pelleted by centrifugation. Fibroblasts were grown in low glucose DMEM medium containing 5% FBS, 1% antibiotic/antimycotic (PAA, Pasching, Austria) and 1% L-glutamine solution (PAA). Fibroblasts were cultured at 37° C. and 5% CO2 in humidified conditions. Depending on the cell growth, the medium was changed every 2-4 days and cells were passaged at 80% of confluence.
The human primary fibroblasts (6000 cells/well) and Hl60 cells (20.000 cells/well) were seeded into 96-well plates (Corning Life Sciences) in media. Fibroblasts were cultured overnight before treatment. […] Resazurin reagent was prepared and used as described in Example 1.
as §5

The test system of data set [9] is human primary fibroblast. Briefly: viability assay (Table 3). The format is cell-based. To be noted: 6000 cells/well, 10 μM-0.2 nM. The method, then: as §1
Human primary fibroblasts were obtained from the skin by enzymatic digestion according to a standard protocol. Fibroblasts were grown in low glucose DMEM/F12 medium containing 15% FCS, 1% antibiotic/antimycotic (PAA, Pasching, Austria) and 1% L-glutamine solution (PAA). Fibroblasts were cultured at 37° C. and 5% CO2 in humidified conditions. […]

For data set [10], the system named is THP-1 (acute monocytic leukemia). Briefly: viability assay (Table 3). The data set is classed as cell-based. To be noted: Homo sapiens, 20000 cells/well, 10 μM-0.2 nM. On the procedure: as §1
(§6) Cancer cell lines were purchased from the American Type Culture Collection (ATCC, Manassas, Va., USA). HT29 (human colorectal adenocarcinoma), HL-60 (acute promyelocytic leukemia), THP-1 (acute monocytic leukemia), MOLT-4 (acute T-lymphoblastic leukemia), MV-4-11 (biphenotypic B myelomonocytic leukemia) and K-562 (erythroleukemia) cells were maintained in Roswell Park Memorial Institute 1640 medium (RPMI-1640) with 10% FCS. Media were supplemented with 2 mM GlutaMAX, and 100 U/mL penicillin, 100 μg/mL streptomycin (Life Technologies, Carlsbad, Calif., USA). Cell cultures were maintained at 37° C. in a humidified incubator in an atmosphere of 5% CO2 (Sanyo, Japan).
(§7) Viability assays were performed as described in Example 102 with minor modification for cell density and tested concentration range. Applied cell densities: in case of human primary fibroblast 6000, for HT29 4000, for HL-60, MOLT-4, MV-4-11, THP-1, K-562 20000 cells/well. Applied compound concentration range: 10 μM-0.2 nM.

In data set [11] the test system is HL-60 (acute promyelocytic leukemia). Briefly: viability assay (Table 3). The format is cell-based. To be noted: Homo sapiens, 20000 cells/well, 10 μM-0.2 nM. On the procedure: as §1, §6, §7
In data set [12] the test system is MV-4-11 (biphenotypic B myelomonocytic leukemia). Briefly: viability assay (Table 3). The format is cell-based. To be noted: Homo sapiens, MV4-11; 20000 cells/well, 10 μM-0.2 nM. On the procedure: as §1, §6, §7
In data set [13] the test system is MOLT-4 (acute T-lymphoblastic leukemia). Briefly: viability assay (Table 3). The data set is classed as cell-based. To be noted: Homo sapiens, 20000 cells/well, 10 μM-0.2 nM. The method, then:
as §1, §6, §7

In data set [14] the test system is HT29 (human colorectal adenocarcinoma). Briefly: viability assay (Table 3). The data set is classed as cell-based. To be noted: HT-29, 4000 cells/well, 10 μM-0.2 nM. On the procedure:
as §1, §6, §7

The test system of data set [15] is K-562 (erythroleukemia). Briefly: viability assay (Table 3). The data set is classed as cell-based. To be noted: Homo sapiens, K562; 20000 cells/well, 10 μM-0.2 nM. The method, then: as §1, §6, §7

With `CC(C)(C)CC(C)(C)Nc1c(C(C)(C)C)[nH]c2c(C(N)=O)cnn12` [Example 22, 2-(Tert-butyl)-3-((2,4,4-trimethylpentan-2-yl)amino)-1H-imidazo[1,2-b]pyrazole-7-carbox-amide], the melting point lay in the range of 155 to 156 °C. Further, the IC50 in data set [1] came out at 5000 nM. Besides, in data set [2], the IC50 came out at 2000 nM. In data set [3], this compound came in with an IC50 of 1490 nM. In data set [4], this compound registered an IC50 of 1240 nM. Moreover, in data set [5], the IC50 turned out to be 1880 nM. For the same compound, the IC50 in data set [6] was 940 nM. The same compound came in with an IC50 in [7] of 3000 nM. In [8], the “decrease in viability of human primary fibroblasts” value is “Significant decrease in viability was not apparent”.
Take `CC(C)(C)Nc1c(C(C)(C)C)[nH]c2c(C(=O)Nc3ccc(O)cc3)cnn12` [Example 90, 2-(Tert-butyl)-3-(tert-butylamino)-N-(4-hydroxyphenyl)-1H-imidazo[1,2-b]pyrazole-7-carboxamide]: the IC50 in data set [9] is more than 3000 nM; in [10], 25.9 nM; in data set [11], 16.5 nM; in data set [12], 32.2 nM; in data set [13], 27.2 nM; in data set [14], 9.97 nM. Moreover, the IC50 in data set [15] came to 54.3 nM.

The melting point is the temperature, or range, at which the solid turns liquid.
